In ChEMBL document CHEMBL3286231, “Synthesis and biological effects of new hybrid compounds composed of benzylguanidines and the alkylating group of busulfan on neuroblastoma cells” (Bioorg Med Chem Lett, 2014) one finds Activity data, which are given here for four compounds.

Active and inactive are the calls of the source. No cut-off for these calls is given here.

In assay [1] the test system is LS. Nature of the assay: Antiproliferative activity against human LS cells at 10 to 100 uM after 72 hrs by MTT assay. It is filed as functional, cell-based.
Assay [2] concerns Kelly. Nature of the assay: Antiproliferative activity against human Kelly cells at 10 to 100 uM after 72 hrs by MTT assay. The assay is classed as functional, cell-based.
For assay [3], the system named is SIMA. The assay can be described thus: Antiproliferative activity against human SiMa cells at 10 to 100 uM after 72 hrs by MTT assay. The assay is classed as functional, cell-based.
Assay [4] deals with SK-N-SH. The assay can be described thus: Antiproliferative activity against human SK-N-SH cells at 10 to 100 uM after 72 hrs by MTT assay. The assay is classed as functional, cell-based.
Assay [5] is described as follows: (§1) Increase in glycolysis in human LS cells assessed as conversion of glucose to lactate at 100 uM after 12 hrs relative to untreated control. The assay is classed as functional.
In assay [6] the test system is SIMA. The assay can be described thus: Increase in glycolysis in human SiMa cells assessed as conversion of glucose to lactate at 100 uM after 12 hrs relative to untreated control. It is filed as functional.
A short description of assay [7]: (§2) Increase in glycolysis in human Kelly cells assessed as conversion of glucose to lactate at 100 uM after 12 hrs relative to untreated control. It is filed as functional.
Assay [8] concerns LS. Described as §1. The assay is classed as functional.
Assay [9] relates to Kelly. The assay is described as §2. It is filed as functional.
The subject of assay [10] is LS. Nature of the assay: Antiproliferative activity against human LS cells after 72 hrs by MTT assay. The assay is classed as functional, cell-based.
Assay [11] relates to Kelly. Nature of the assay: Antiproliferative activity against human Kelly cells after 72 hrs by MTT assay. The assay is classed as functional, cell-based.
Assay [12] relates to SIMA. Nature of the assay: Antiproliferative activity against human SiMa cells after 72 hrs by MTT assay. The assay is classed as functional, cell-based.
Assay [13] has as its system SK-N-SH. The assay can be described thus: Antiproliferative activity against human SK-N-SH cells after 72 hrs by MTT assay. The assay is classed as functional, cell-based.

`N=C(N)NCc1cccc(I)c1` [IOBENGUANE]: the result in [1], in assay [2], in assay [3] and in assay [4] was Active. Further, the Activity in assay [5] is 81%; in assay [6] it was 98%; in assay [7], 74%.

Regarding `CS(=O)(=O)OCCCCOS(C)(=O)=O`, the result in assay [1], in assay [2], in assay [3] and in assay [4] was Active. Besides, the result in [8], in assay [6] and in [9] was inactive.

On to `CS(=O)(=O)OCCCCOc1cccc(CNC(=N)N)c1`, for which the Activity entry in [10], in assay [11], in [12] and in assay [13] was “Dose-dependent effect” throughout. Besides, the outcome in assay [8], in [6] and in assay [9] was Active.

`CS(=O)(=O)OCCCCOc1ccc(CNC(=N)N)cc1`: the Activity entry in [10], in [11], in assay [12] and in assay [13] was “Dose-dependent effect” in each case. In addition, the result in assay [8], in [6] and in assay [9] was Active.
